Reference: PMC8034656 (2021)

Tested on: single oligonucleotide with a low probability of self-hybridization (ssDNA) (DNA, single strand) GAACAACGCTCCAACCATCGC
Assay: absorption and fluorescence titration
Conditions: 3 µM DOX; absorption changes, fluorescence hardly quenched

**Q.** How did the binding turn out when COc1cccc2c1C(=O)c1c(O)c3c(c(O)c1C2=O)C[C@@](O)(C(=O)CO)C[C@@H]3O[C@H]1C[C@H](N)[C@H](O)[C@H](C)O1 was run?
**A.** Its binding is “weak”.
